Experimental data taken from article PMC11078216, “Discovery of potent and selective activity-based probes (ABPs) for the deubiquitinating enzyme USP30” (RSC Chemical Biology, 2024).

Biological target: T1, UCHL1 (Homo sapiens, UniProt P09936)
T1 sequence (P09936 1-223): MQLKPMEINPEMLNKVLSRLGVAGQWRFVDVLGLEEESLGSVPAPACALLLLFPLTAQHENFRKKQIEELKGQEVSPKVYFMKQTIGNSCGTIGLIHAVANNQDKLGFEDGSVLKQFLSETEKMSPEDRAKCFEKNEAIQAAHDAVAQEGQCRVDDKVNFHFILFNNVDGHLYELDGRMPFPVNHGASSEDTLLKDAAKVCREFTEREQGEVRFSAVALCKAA
Experiment: ABPP chemical proteomics (LC-MS/MS) in HEK293T cells
Assay type: cell-based
Set-up: endogenous in cells; host or cells: HEK293T
Conditions: IMP-2587 labelling vs DMSO, 30 nM, 10 min, HEK293T (Table S2, Fig.5a)
Method: To explore the selectivity of IMP-2587 and IMP-2586 across the whole proteome, we performed quantitative activity-based protein profiling (ABPP) in HEK293T cells following treatment with IMP-2587 or IMP-2586 (Fig. 3a). After ABP incubation, cells were lysed, and probe-labelled proteins were ligated to biotinylated capture reagents.[27] […] USP30 was outcompeted by corresponding parent inhibitors for each ABP (Fig. 5b and d and Tables S3 and S5, ESI ^†), confirming the high potency and rapid engagement of IMP-2587 and IMP-2586 in cells. […] DESI1 and DESI2 are small ubiquitin-related modifier (SUMO) proteases,[3,29–32] and IMP-2587 and IMP-2586 may offer a starting point for future development of DESI ABPs. […]
The lysate samples (10-20 μg) were mixed with 4× Laemmli sample loading buffer (250 mM Tris -HCl pH 6.8, 30% (v/v) glycerol, 10% (w/v) SDS, 0.05% (w/v) bromophenol blue) supplemented with 20% v/v β-mercaptoethanol (BME) and boiled for 10 min at 95 °C. […] Gel were imaged on a Typhoon imager (GE Healthcare; λEx 532 nm, λEm 575 nm for TAMRA. For protein loading quantification, gels were stained with Coomassie blue staining solution overnight, rinsed with water and imaged on an ImageQuant™ LAS 4000 imager (GE Healthcare). f) Neutravidin biotin enrichment (Affinity pull-down) […]

C#Cc1cccc(-c2cc(NC(=O)CC3CCN(C#N)C3)on2)c1 (stereo not shown) [IMP-2587]
Difference (log2 fold change of enrichment): 0.76
